# Measured values reported in PMC6150234, “HPLC Analysis and Biochemical Characterization of LOX from Eschscholtzia californica Cham” (Molecules : A Journal of Synthetic Chemistry and Natural …, 2017).
# System: T1, California poppy LOX (purified LOX from California poppy seedlings; 9/13-LOX)
# T1 construct: 85 kDa on SDS-PAGE
# Test: A234 spectrophotometry; Lineweaver-Burk
# Assay type: biochemical, Eschscholzia californica
# Settings: 100 mM potassium phosphate pH 6.5, room temperature; 0.476-1.33 mM LA
compound,measurement,value
CCCCC/C=C\C/C=C\CCCCCCCC(=O)O [linoleic acid],Km,2600 µM
